Test results as given in ChEMBL document CHEMBL1201862, “PubChem BioAssay data set” (2004).
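Values below derive from 48-hour exposures of cells grown in 96-well plates, with endpoints linearly interpolated between the two concentrations bracketing the appropriate inhibition level. GI50 = concentration required for 50% inhibition of growth.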 Calls of active or inactive are those of the source. Rule as the data show it: active = GI50 up to about 1.1 µM and inactive = higher.

What was measured:
Assay in all cases: NCI tumour cell line growth inhibition, 48 h
CAKI-1 = test system: CAKI-1
IGROV-1 = test system: IGROV-1
SK-OV-3 = test system: SK-OV-3
OVCAR-4 = test system: OVCAR-4
TK-10 = test system: TK-10
786-0 = test system: 786-0
OVCAR-5 = test system: OVCAR-5
KM12 = test system: KM12
HCC 2998 = test system: HCC 2998
OVCAR-8 = test system: OVCAR-8
UO-31 = test system: UO-31
U-251 = test system: U-251
NCI-H522 = test system: NCI-H522
SK-MEL-5 = test system: SK-MEL-5
RXF 393 = test system: RXF 393
MOLT-4 = test system: MOLT-4
PC-3 = test system: PC-3
NCI/ADR-RES = test system: NCI/ADR-RES
DU-145 = test system: DU-145
Hs-578T = test system: Hs-578T

SMILES | GI50 (CAKI-1) | GI50 (IGROV-1) | GI50 (SK-OV-3) | GI50 (OVCAR-4) | GI50 (TK-10) | GI50 (786-0) | GI50 (OVCAR-5) | GI50 (KM12) | GI50 (HCC 2998) | GI50 (OVCAR-8) | GI50 (UO-31) | GI50 (U-251) | GI50 (NCI-H522) | GI50 (SK-MEL-5) | GI50 (RXF 393) | GI50 (MOLT-4) | GI50 (PC-3) | GI50 (NCI/ADR-RES) | GI50 (DU-145) | GI50 (Hs-578T)
Oc1ccc2c(O)cc(-c3ccccc3)nc2c1 | 24.4 µM (inactive) | 29 µM (inactive) | 28.4 µM (inactive) | 26 µM (inactive) | 40.7 µM (inactive) | 31.2 µM (inactive) | 58.9 µM (inactive) | 22.2 µM (inactive) | 34 µM (inactive) | 32.7 µM (inactive) | 19.3 µM (inactive) | 31.3 µM (inactive) | 27 µM (inactive) | 30.1 µM (inactive) | 6.22 µM (inactive) | 21.1 µM (inactive) | – | – | – | –
C[C@]12CC[C@H]3[C@@H](CCC4=C/C(=N/OCCN5CCCCC5)CC[C@@]43C)[C@@H]1CC[C@@H]2O | 28.8 µM (inactive) | 27.4 µM (inactive) | 15.2 µM (inactive) | 13.9 µM (inactive) | 14.3 µM (inactive) | 19.3 µM (inactive) | 16.1 µM (inactive) | 10.2 µM (inactive) | 14.4 µM (inactive) | 24.1 µM (inactive) | 12.2 µM (inactive) | 13.3 µM (inactive) | 12.2 µM (inactive) | 8.63 µM (inactive) | 11.8 µM (inactive) | 5.81 µM (inactive) | 16.2 µM (inactive) | 16.7 µM (inactive) | 21.9 µM (inactive) | –
COc1ccc2[nH]c3c([N+](=O)[O-])ccc(NCCN(C)C)c3/c(=N/CCN(C)C)c2c1 | 3.97 µM (inactive) | 1.91 µM (inactive) | 2.85 µM (inactive) | 0.521 µM (active) | 3.13 µM (inactive) | 0.577 µM (active) | – | 1.26 µM (inactive) | 0.867 µM (active) | 0.634 µM (active) | – | – | – | 1.86 µM (inactive) | 1.03 µM (active) | 0.172 µM (active) | 0.676 µM (active) | – | 2.88 µM (inactive) | –
O=C1NI(C#Cc2ccccc2)c2ccccc21 | > 100 µM (inactive) | > 100 µM (inactive) | 1.32 µM (inactive) | 53 µM (inactive) | > 100 µM (inactive) | > 100 µM (inactive) | – | 95.1 µM (inactive) | – | > 100 µM (inactive) | > 100 µM (inactive) | 60.3 µM (inactive) | – | > 100 µM (inactive) | – | 65.3 µM (inactive) | 19 µM (inactive) | > 100 µM (inactive) | > 100 µM (inactive) | > 100 µM (inactive)
Cc1nn(C(=O)Cc2ccccc2)c2c1C(c1ccccc1O)SC(=N)N2 (centres undefined) | > 100 µM (inactive) | > 100 µM (inactive) | > 100 µM (inactive) | – | > 100 µM (inactive) | > 100 µM (inactive) | – | > 100 µM (inactive) | > 100 µM (inactive) | > 100 µM (inactive) | > 100 µM (inactive) | – | > 100 µM (inactive) | > 100 µM (inactive) | – | > 100 µM (inactive) | > 100 µM (inactive) | – | > 100 µM (inactive) | > 100 µM (inactive)
CN(C)c1ccc(C(=C(c2ccc(N(C)C)cc2)c2ccc(N(C)C)cc2)c2ccc(N(C)C)cc2)cc1 | 12.4 µM (inactive) | 17.3 µM (inactive) | 20.8 µM (inactive) | 20.1 µM (inactive) | 16 µM (inactive) | 11.4 µM (inactive) | > 100 µM (inactive) | 18.5 µM (inactive) | 16 µM (inactive) | 19.6 µM (inactive) | 17.4 µM (inactive) | 13.9 µM (inactive) | 0.301 µM (active) | 16.3 µM (inactive) | 11.7 µM (inactive) | 14.6 µM (inactive) | – | – | – | –
Cc1cccc(C)c1NC(=O)/C(Cl)=C(/Cl)C(=O)O | 7.66 µM (inactive) | 20.8 µM (inactive) | 21.8 µM (inactive) | 18.5 µM (inactive) | 14.7 µM (inactive) | 17.1 µM (inactive) | 20.4 µM (inactive) | 15.3 µM (inactive) | 18 µM (inactive) | 20.2 µM (inactive) | 14.8 µM (inactive) | 21.1 µM (inactive) | 4.33 µM (inactive) | 19.9 µM (inactive) | 18.8 µM (inactive) | 3.99 µM (inactive) | 19.8 µM (inactive) | – | 26.5 µM (inactive) | 33.3 µM (inactive)
O=C(O)C1SCCS1 | – | > 100 µM (inactive) | > 100 µM (inactive) | 31.8 µM (inactive) | > 100 µM (inactive) | > 100 µM (inactive) | > 100 µM (inactive) | – | > 100 µM (inactive) | > 100 µM (inactive) | > 100 µM (inactive) | > 100 µM (inactive) | – | > 100 µM (inactive) | – | > 100 µM (inactive) | > 100 µM (inactive) | > 100 µM (inactive) | > 100 µM (inactive) | –
[N-]=[N+]=Nc1ccc2c(c1)Sc1ccccc1N2CCCCN1CCN(Cc2ccc(C(=O)c3ccc(CSCC(N)C(=O)O)cc3)cc2)CC1 (centres undefined) | 20.7 µM (inactive) | 13.5 µM (inactive) | > 100 µM (inactive) | > 100 µM (inactive) | 56.2 µM (inactive) | 12.1 µM (inactive) | 52.4 µM (inactive) | 1.57 µM (inactive) | 24.9 µM (inactive) | – | 37.4 µM (inactive) | 11.1 µM (inactive) | 12.5 µM (inactive) | 13.8 µM (inactive) | 46.7 µM (inactive) | 15.3 µM (inactive) | 43.5 µM (inactive) | – | 21.3 µM (inactive) | –
O=c1c2ncn(C3CCCO3)c2n(-c2ccccc2)c(=S)n1-c1ccccc1 (centres undefined) | > 100 µM (inactive) | > 100 µM (inactive) | > 100 µM (inactive) | > 100 µM (inactive) | > 100 µM (inactive) | > 100 µM (inactive) | > 100 µM (inactive) | > 100 µM (inactive) | > 100 µM (inactive) | > 100 µM (inactive) | > 100 µM (inactive) | > 100 µM (inactive) | > 100 µM (inactive) | > 100 µM (inactive) | > 100 µM (inactive) | > 100 µM (inactive) | > 100 µM (inactive) | > 100 µM (inactive) | > 100 µM (inactive) | –
Cc1ccc(Nc2cc(=O)[nH]c(=O)[nH]2)cc1CS | > 100 µM (inactive) | > 100 µM (inactive) | > 100 µM (inactive) | > 100 µM (inactive) | > 100 µM (inactive) | > 100 µM (inactive) | > 100 µM (inactive) | > 100 µM (inactive) | > 100 µM (inactive) | > 100 µM (inactive) | > 100 µM (inactive) | > 100 µM (inactive) | > 100 µM (inactive) | > 100 µM (inactive) | 89.9 µM (inactive) | > 100 µM (inactive) | > 100 µM (inactive) | > 100 µM (inactive) | – | > 100 µM (inactive)
COc1ccc2c(c1OC)C(=O)c1cnccc1C2=O | > 100 µM (inactive) | > 100 µM (inactive) | > 100 µM (inactive) | > 100 µM (inactive) | > 100 µM (inactive) | > 100 µM (inactive) | > 100 µM (inactive) | > 100 µM (inactive) | > 100 µM (inactive) | > 100 µM (inactive) | > 100 µM (inactive) | > 100 µM (inactive) | > 100 µM (inactive) | > 100 µM (inactive) | 24.9 µM (inactive) | > 100 µM (inactive) | – | – | – | –
COc1cccc(/C(C=O)=C(\Cl)c2ccc(OC)c(OC)c2)c1 | 29.2 µM (inactive) | 21.1 µM (inactive) | 26.1 µM (inactive) | 16 µM (inactive) | 28.1 µM (inactive) | 16.1 µM (inactive) | 19 µM (inactive) | 15.7 µM (inactive) | 16.1 µM (inactive) | 13.8 µM (inactive) | 14.5 µM (inactive) | 13.9 µM (inactive) | 10.3 µM (inactive) | 12.7 µM (inactive) | 12.3 µM (inactive) | 13.2 µM (inactive) | – | – | – | –
Clc1ccc2ns[s+]c2c1 | 1.63 µM (inactive) | 40.3 µM (inactive) | > 100 µM (inactive) | 22.4 µM (inactive) | > 25.6 µM (inactive) | 53.8 µM (inactive) | 6.58 µM (inactive) | 3.66 µM (inactive) | 17.5 µM (inactive) | 20.4 µM (inactive) | 6.44 µM (inactive) | 18.3 µM (inactive) | 11.1 µM (inactive) | 15.5 µM (inactive) | > 100 µM (inactive) | 1.71 µM (inactive) | 0.847 µM (active) | – | 8.79 µM (inactive) | 78 µM (inactive)
CC1OC(OC2C[C@](O)(C(=O)CF)Cc3c(O)c4c(c(O)c32)C(=O)c2ccccc2C4=O)CC(N)C1O (some centres undefined) | < 0.01 µM (active) | 0.0877 µM (active) | 0.0194 µM (active) | 0.152 µM (active) | 0.1 µM (active) | < 0.01 µM (active) | 0.0719 µM (active) | 0.0305 µM (active) | 0.163 µM (active) | 0.0115 µM (active) | 0.0392 µM (active) | < 0.013 µM (active) | 0.0202 µM (active) | < 0.0113 µM (active) | 0.0637 µM (active) | < 0.01 µM (active) | 0.0275 µM (active) | – | < 0.01 µM (active) | 0.0103 µM (active)
C[C@@]12C(=O)OC(=O)[C@]1(C)[C@H]1CC[C@@H]2O1 [CANTHARIDIN] | 0.791 µM (active) | 2.16 µM (inactive) | 2.17 µM (inactive) | 2.58 µM (inactive) | 0.313 µM (active) | 1.74 µM (inactive) | 2.45 µM (inactive) | 5.42 µM (inactive) | 1.53 µM (inactive) | 5.98 µM (inactive) | 2.64 µM (inactive) | 1.41 µM (inactive) | 0.935 µM (active) | 0.973 µM (active) | 0.484 µM (active) | 9.79 µM (inactive) | 0.279 µM (active) | 6.5 µM (inactive) | 1.02 µM (active) | –
